The nature of assay [1]: Binding affinity for rodent 5-hydroxytryptamine 5A receptor.
Assay [2] can be described thus: Binding affinity of compound towards rodent 5-hydroxytryptamine 7 receptor.

The Ki is a dissociation constant, usually derived from enzyme kinetics or from competition with a known ligand. In assay [1], `CCN(CC)C(=O)[C@@H]1C=C2c3cccc4[nH]c(I)c(c34)C[C@H]2N(C)C1` returned an inhibition constant (Ki) of less than 10 nM.

With `CCCCC(=O)c1ccc(F)cc1` [1-(4-Fluoro-phenyl)-pentan-1-one], the affinity in assay [2], expressed as Ki, was 140 nM.

`Oc1ccc2cccc(N3CCNCC3)c2c1` [8-Piperazin-1-yl-naphthalen-2-ol] returned a Ki in assay [1] of 3 nM. The same measure, in the same setting: as for `CCN(CC)C(=O)[C@@H]1C=C2c3cccc4[nH]c(Br)c(c34)C[C@H]2N(C)C1` [LSD,2-Bromo], the figure is less than 10 nM.

The values above are taken from BindingDB's records for doi:10.1021/jm030030n (Virginia Commonwealth University, 2003).
